Data taken from patent publication US10781420B2, “Method for producing cerebellar progenitor tissue” (RIKEN, priority 2014, dated 2020).

What was measured:
Assay type in all cases: cell-based
[1] = tested on: Purkinje cells induced from human pluripotent stem cell aggregates; experiment: Patch clamp analysis of Purkinje cells induced from human pluripotent stem cells; conditions: AMPA receptor inhibitor
Description: Mature Purkinje cells were differentiated from human pluripotent stem cell aggregates according to the method of Example 3. Using the Patch clamp technique, the electrophysiological reaction thereof was analyzed.

[2] = tested on: Human ES cells (KhES-1); experiment: Differentiation of human ES cell aggregates (SFEBq method) into midbrain-hindbrain boundary neural progenitors
Description: Human ES cells (KhES-1) subjected to maintenance culturing on MEF by a conventional method were used. To differentiate human ES cells by the serum-free floating culture of embryoid body-like aggregates with quick reaggregation (SFEBq method), human ES cells were enzymatically dispersed to single cells, according to the method of Nakano et al. (Cell Stem Cell, 10(6), 771-785, 2012), and reaggregated using a low-cell-adhesive V-bottom 96 well plate (SUMITOMO BAKELITE). 6,000 cells were seeded per well, and cultured in, as a differentiation medium, CDM medium [chemical synthesis medium without a growth factor (growth-factor-free Chemically Defined Medium; gfCDM; Wataya et al., Proc. Natl. Acad. Sci. USA, 105, 11796-11801, 2008) supplemented with insulin (7 μg/ml) and apo-transferrin (15 μg/ml)] under 5% CO2 at 37° C.
The seeding day is taken as day 0 of differentiation culturing. […] […] On day 7, ⅓ of the medium was exchanged with a differentiation medium free of Y-27632, SB431542 and Fgf2. On day 14 of culturing, the medium was completely substituted by a differentiation medium free of Y-27632, SB431542 and FGF2. The cell aggregates were fixed and sliced, and tissue differentiation was analyzed by the immunofluorescence method and quantitative PCR method.

[3] = tested on: Human pluripotent stem cell aggregates; experiment: Self-formation of cerebellar plate tissue (Kirrel2 positive neuroepithelium) from human pluripotent stem cell aggregates
Description: The was aggregates were transferred to a low-cell-adhesion 10 cm dish on and after day 21, and cultured in a neural culture medium (Neurobasal/GlutaMaxI/N2, all Life Technologies). On day 28 of culturing, the total amount of the medium was exchanged with the same neural culture medium, and differentiation of the tissue was analyzed by the immunofluorescence method on day 35 of culturing.
Separated Kirrel2 positive cells, and cerebellar granule cell progenitors prepared from the upper rhombic lip of embryonic day 14 mouse were dispersed into single cells by cell dispersion enzyme (TrypLE, Life Technologies), and cocultured on a cover glass coated with poly D-lysine/laminin in DMEM/F12/10% FBS medium (5% CO2, 37° C.). In coculture, human pluripotent stem cell-derived Kirrel positive cells (1 vol) relative to mouse-derived cerebellar granule cell progenitors (10 vol) were mixed. After 6-12 hr, DMEM/F12/N2/BSA/Tri-iodothyronine (T3) was added to decrease the FBS concentration to about 0.8%.

[4] = tested on: Human pluripotent stem cell aggregates; experiment: Formation of cerebellar plate tissue having dorsal-ventral axis pattern by addition of FGF19
Description: Human pluripotent stem cell aggregates were cultured according to the methods of Examples 1 and 2. […] The cells were cultured in a neural culture medium (Neurobasal/GlutaMaxI/N2) on and after day 21. On day 28, the total amount of the medium was exchanged with the same medium, and on day 35, tissue differentiation was analyzed by the immunofluorescence method.

[5] = tested on: Human pluripotent stem cell aggregates; experiment: Formation of rhombic lip and 3 layer structure of cerebellar plate by addition of SDF1
Description: Human pluripotent stem cell aggregates were cultured according to the method of Example 6. On and after day 21, the cells were cultured in a neural culture medium (Neurobasal/GlutaMaxI/N2). On day 28, the total amount of the medium was exchanged with the same medium, and SDF1 was added at a final concentration of 300 ng/ml. On day 35, differentiation of the tissue was analyzed by the immunofluorescence method.

[6] = tested on: Human pluripotent stem cell aggregates; experiment: Formation of rhombic lip in cerebellar plate tissue by addition of GDF7
Description: Human pluripotent stem cell aggregates were cultured according to the method of Example 6. […] The cells were continuously cultured in a neural culture medium (Neurobasal/GlutaMaxI/N2). On day 28, the total amount of the medium was exchanged with the same medium free of GDF7, and on day 35, the cells were analyzed by the immunofluorescence method and the quantitative PCR method.

[7] = FGF2 50 ng/ml day 2 to day 7 vs Fgf2 non-addition, quantitative PCR
[8] = FGF19 100 ng/ml added on day 14, analysed day 35
[9] = SDF1 300 ng/ml added on day 28, analysed day 35
[10] = GDF7 100 ng/ml added on day 21, day 35, quantitative PCR
[11] = GDF7 added from day 14 of culturing

Question: `NS(=O)(=O)c1cccc2c1c([N+](=O)[O-])cc1nc(O)c(O)nc12` [NBQX] was tested. Which “miniature excitatory postsynaptic current” value [1] did it give?
Answer: suppression of miniature excitatory postsynaptic current

Question: Which “induction of differentiation into neural progenitors” value ([2]; SB431542 3 μM) does the source give for `NC(=O)c1ccc(-c2nc(-c3ccc4c(c3)OCO4)c(-c3ccccn3)[nH]2)cc1` [SB431542, 4-(5-benzol[1,3]dioxol-5-yl-4-pyridin-2-yl-1H-imidazol-2-yl)-benzamide, reference compound] here?
Answer: induction of differentiation into neural progenitors was also observed

Question: And the “differentiation into neural progenitors in the midbrain-hindbrain boundary” value ([2]; SB431542 10-30 μM)?
Answer: induced differentiation into neural progenitors in the midbrain-hindbrain boundary

Question: For `C[C@@H](N)[C@H]1CC[C@H](C(=O)Nc2ccncc2)CC1` [Y-27632, (+)-(R)-trans-4-(1-aminoethyl)-N-(4-pyridyl)cyclohexanecarboxamide, reference compound], which “aggregate formation of human ES cells” value ([2]; when Y-27632 was not added) is on record?
Answer: did not form an aggregate

Question: Which “cerebellar plate formation from human pluripotent stem cells” value ([3]; Hedgehog inhibitor added) does the source give for `CC1=C2C[C@H]3[C@@H](CC=C4C[C@@H](O)CC[C@@]43C)[C@@H]2CC[C@]12O[C@@H]1C[C@H](C)CN[C@H]1[C@H]2C` [cyclopamine, reference compound] here?
Answer: did not significantly promote cerebellar plate formation

Question: How did the “differentiation into neural progenitors in the midbrain-hindbrain boundary” value ([2]; FGF2 20 ng/ml) turn out when “FGF2: known cytokine also called basic fibroblast growth factor (bFGF); first fibroblast growth factor” was run?
Answer: promoted differentiation into neural progenitors in the midbrain-hindbrain boundary

Question: And the “expression of forebrain markers Six3 and Otx2” value [2, 7]?
Answer: suppressed

Question: What about the “expression of midbrain-hindbrain boundary markers En2, Gbx2” value [2, 7] of the same molecule?
Answer: markedly increased

Question: What about the “differentiation into neural progenitors in the midbrain-hindbrain boundary” value ([2]; FGF2 100 ng/ml) of the same molecule?
Answer: promoted differentiation into neural progenitors in the midbrain-hindbrain boundary

Question: What about the “differentiation into neural progenitors in the midbrain-hindbrain boundary” value ([2]; FGF2 5-10 ng/ml (concentration used for maintenance culturing of ES cells)) of the same molecule?
Answer: did not show promotion of differentiation

Question: What about the “differentiation into neural progenitors in the midbrain-hindbrain boundary” value ([2]; FGF2 added days 2-7) of the same molecule?
Answer: showed the highest effect

Question: What about the “differentiation into neural progenitors in the midbrain-hindbrain boundary” value ([2]; FGF2 added days 2-14) of the same molecule?
Answer: exhibited a promoting effect

Question: What about the “differentiation into neural progenitors in the midbrain-hindbrain boundary” value ([2]; FGF2 added days 3-7) of the same molecule?
Answer: exhibited a promoting effect

Question: What about the “differentiation into neural progenitors in the midbrain-hindbrain boundary” value ([2]; FGF2 added days 4-7) of the same molecule?
Answer: exhibited a promoting effect

Question: What about the “differentiation into neural progenitors in the midbrain-hindbrain boundary” value ([2]; FGF2 added from day 0) of the same molecule?
Answer: remarkable promotion of differentiation into neural progenitors in the midbrain-hindbrain boundary was not observed

Question: What about the “differentiation into neural progenitors in the midbrain-hindbrain boundary” value ([2]; FGF2 added from day 1) of the same molecule?
Answer: remarkable promotion of differentiation into neural progenitors in the midbrain-hindbrain boundary was not observed

Question: And the “expression of Fgf8 and Wntl (isthmic organizer)” value ([2]; FGF2 addition, days 10 and 14)?
Answer: enhanced

Question: What about the “kirrel2 positive cells (FACS, anti-kirrel2 antibody)” value ([3]; day 35, cells exposed to Fgf2) of the same molecule?
Answer: ~30%

Question: With “FGF19: known cytokine, human ortholog of mouse Fgf15; second fibroblast growth factor” as the molecule, how does the “effect (frequency) on dorsal-ventral polarity formation relative to that at 100 ng/ml” value ([4]; FGF19 50 ng/ml) read?
Answer: about ⅓

Question: What about the “formation of structure having polarity along the dorsal-ventral axis of neural tube” value ([4]; FGF19 50 ng/ml) of the same molecule?
Answer: promoted formation of a structure having polarity along the dorsal-ventral axis of the neural tube

Question: And the “formation of continuous flat-oval neuroepithelial structure in the cell aggregate” value [4, 8]?
Answer: promoted formation of a continuous flat-oval neuroepithelial structure

Question: What about the “formation of structure having polarity along the dorsal-ventral axis of neural tube” value [4, 8] of the same molecule?
Answer: resulted in the formation of a structure having polarity along the dorsal-ventral axis of neural tube

Question: What about the “effect (frequency) on dorsal-ventral polarity formation relative to that at 100 ng/ml” value ([4]; FGF19 300 ng/ml) of the same molecule?
Answer: of the same level as that at 100 ng/ml

Question: What about the “formation of the dorsal-ventral axis pattern” value ([4]; FGF19 300 ng/ml) of the same molecule?
Answer: similarly promoted formation of the dorsal-ventral axis pattern

Question: What about the “formation of a dorsal-ventral axis pattern” value ([4]; FGF19 added on day 10 of culturing) of the same molecule?
Answer: formation of a dorsal-ventral axis pattern was promoted, though the efficiency was low

Question: With “SDF1: known chemokine also called CXCL12, secreted ligand for chemokine receptor 4 (CXCR4)” as the molecule, how does the “formation of rhombic lip and 3 layer structure of cerebellar plate” value (“formation … of cerebellar plate” for short) ([5]; SDF1 100 ng/ml) read?
Answer: promoted formation of rhombic lip and formation of a 3 layer structure of cerebellar plate

Question: And the “configuration of the rhombic lip” value [5, 9]?
Answer: enables continuous configuration of the rhombic lip

Question: And the “formation of continuous kirrel2 positive neuroepithelial structure” value [5, 9]?
Answer: promoted formation of a continuous kirrel2 positive neuroepithelial structure

Question: And the “formation … of cerebellar plate” value ([5]; SDF1 500 ng/ml)?
Answer: promoted formation of rhombic lip and formation of a 3 layer structure of cerebellar plate

Question: What about the “formation … of cerebellar plate” value ([5]; SDF1 added from day 21) of the same molecule?
Answer: an effect similar to that when added from day 28 was observed

Question: How did the “formation of polarized cerebellar plate” value ([3]; addition of Sonic Hedgehog to human pluripotent stem cell culturing system) turn out when Sonic Hedgehog was run?
Answer: conversely promotes formation of polarized cerebellar plate

Question: Which “formation … of cerebellar plate” value ([5]; used in place of SDF1) does the source give for laminin here?
Answer: could not substitute SDF1

B1: FGF8: fibroblast growth factor used instead of FGF19 (protein, UniProt P55075 23-233, looked up)
Fibroblast growth factor 8: QEGPGRGPALGRELASLFRAGREPQGVSQQHVREQSLVTDQLSRRLIRTYQLYSRTSGKHVQVLANKRINAMAEDGDPFAKLIVETDTFGSRVRVRGAETGLYICMNKKGKLIAKSNGKGKDCVFTEIVLENNYTALQNAKYEGWYMAFTRKGRPRKGSKTRQHQREVHFMKRLPRGHHTTEQSLRFEFLNYPPFTRSLRGSQRTWAPEPR
Question: B1 was tested. Which “formation of a dorsal-ventral axis pattern” value ([4]; used instead of FGF19) did it give?
Answer: promoted like FGF19, though the effect was weaker than FGF19

B2: GDF7: known cytokine promoting differentiation into cerebellar granule cell progenitors and formation of rhombic lip (protein, UniProt Q7Z4P5 322-450, looked up)
Growth/differentiation factor …: TALAGTRTAQGSGGGAGRGHGRRGRSRCSRKPLHVDFKELGWDDWIIAPLDYEAYHCEGLCDFPLRSHLEPTNHAIIQTLLNSMAPDAAPASCCVPARLSPISILYIDAANNVVYKQYEDMVVEACGCR
Question: Which “expression of Atoh1 positive cell in neural progenitor tissue” value ([6]; GDF7 100 ng/ml added on day 21, analysed day 35, immunofluorescence) does the source give for B2 here?
Answer: promoted expression of Atoh1 positive cell

Question: What about the “Atoh1 gene level relative to that by the addition of FGF2 (first comparison printed)” value [6, 10] of the same molecule?
Answer: about 220 fold

Question: And the “Atoh1 gene level relative to that by the addition of FGF2 (second comparison printed)” value [6, 10]?
Answer: 1.5 fold

Question: And the “growth of cell aggregate” value [6, 11]?
Answer: growth of cell aggregate was inhibited

Question: What about the “induction of Atoh1 positive cell” value [6, 11] of the same molecule?
Answer: Atoh1 positive cell was induced

Question: And the “formation of the rhombic lip” value ([6]; GDF7 not removed from the medium on and after day 28)?
Answer: adverse influence on the formation of the rhombic lip was not found

B3: FGF17: fibroblast growth factor used instead of FGF19 (protein, UniProt O60258 23-216, looked up)
Fibroblast growth factor 17: TQGENHPSPNFNQYVRDQGAMTDQLSRRQIREYQLYSRTSGKHVQVTGRRISATAEDGNKFAKLIVETDTFGSRVRIKGAESEKYICMNKRGKLIGKPSGKSKDCVFTEIVLENNYTAFQNARHEGWFMAFTRQGRPRQASRSRQNQREAHFIKRLYQGQLPFPNHAEKQKQFEFVGSAPTRRTKRTRRPQPLT
Question: Which “formation of a dorsal-ventral axis pattern” value ([4]; used instead of FGF19) does the source give for B3 here?
Answer: promoted like FGF19, though the effect was weaker than FGF19

B4: BMP4: factor known to promote formation of rhombic lip in mouse (protein, UniProt P12644 293-408, looked up)
Bone morphogenetic protein 4: SPKHHSQRARKKNKNCRRHSLYVDFSDVGWNDWIVAPPGYQAFYCHGDCPFPLADHLNSTNHAIVQTLVNSVNSSIPKACCVPTELSAISMLYLDEYDKVVLKNYQEMVVEGCGCR
Question: How did the “formation of the rhombic lip from human pluripotent stem cell” value ([6]; BMP4 used instead of GDF7) turn out when B4 was run?
Answer: could not be induced
